How the values were obtained:
[1] = test system: RC-77T/E cells; assay: Androgen sensitivity: cell proliferation by MTT assay, RC-77T/E cells; format: cell-based, human; details: 4 days
Protocol: (§1) Since androgen receptor expression was observed both cell lines, an experiment was conducted to determine the effects of androgen stimulation on the growth of RC-77N/E and RC-77T/E cells. Cells were grown in serum-free K-SFM at different doses of Methyltrienolone (R1881), a synthetic androgen, for 4 days.
(§2) In this experiment, 2×10^4 cells per well of each line were grown in serum-free K-SFM with 0.1% BSA in the presence of 0, 0.1, 1.0, 10.0 and 100.0 nM for 4 days. K-SFM was supplemented with or without Methyltrienolone (R1881) (obtained from Perkin-Elmer, Waltham, Mass.), at concentrations of 0.1, 1, 10 and 100 nM, respectively. Cell proliferation was determined by MTT assay according to a procedure as generally described by Wells et al. (“Luteinizing hormone-releasing hormone agonist limits DU-145 prostate cancer growth by attenuating epidermal growth factor receptor signaling.” Clin. Cancer Res. 8: 1251-1257, 2002.).
(§3) The results from this experiment are illustrated in the chart of FIG. 4, with percent growth being determined by the number of cell counts being expressed as the mean value of triplicate observation. […] Further, the RC-77T/E cells were found responsive to 0.1 nM R1881, while RC-77N/E cells were only responsive at the higher dosage of 1.0 nM.

[2] = test system: RC-77N/E cells; assay: Androgen sensitivity: cell proliferation by MTT assay, RC-77N/E cells; format: cell-based, human; details: 4 days
Protocol: as §1, §2, §3

[3] = 1.0 nM R1881, serum-free K-SFM with 0.1% BSA
[4] = 100.0 nM R1881, serum-free K-SFM with 0.1% BSA

C[C@]1(O)CC[C@H]2[C@@H]3CCC4=CC(=O)CCC4=C3C=C[C@@]21C [R1881, Methyltrienolone]
cell growth response to androgen stimulation ([1]; 0.1 nM R1881, serum-free K-SFM with 0.1% BSA): responsive | cell growth [1, 3]: Significant stimulation in cell growth | cell growth [1, 4]: inhibition of cell growth | cell growth [2, 3]: Significant stimulation in cell growth | cell growth [2, 4]: inhibition of cell growth

From US20140286868A1, “IMMORTALIZED HUMAN PROSTATE CELL LINES” (Tuskegee University, priority 2011, published 2014)
